Measurements reported in PubChem BioAssay AID248 (DTP/NCI, 2004).
Values joined by “and” are separate entries in the source; they are usually repeats but may differ in a detail not shown here. Equal entries are not always repeated. Toxic doses and inconclusive results are not listed. Cut-off read from the data, not from the text of the source: active = T/C of 150% or more; inactive = T/C below 125%.

Test system: L1210 leukemia ip in BDF1 mice, survival T/C
Test: NCI In Vivo Anticancer Drug Screen. Data for tumor model L1210 Leukemia (intraperitoneal) in B6D2F1 (BDF1) mice
Settings: endpoint: mean survival time, higher = longer survival
How it was run: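 Antitumor effect is assessed in tumor-bearing animals. Survival in the compound arm is compared with a vehicle-dosed control arm and expressed as their quotient.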

[1] = dose: 100.0 mg/kg/injection, schedule: Q01DX001 (ip), vehicle: saline
[2] = dose: 200.0 mg/kg/injection, schedule: Q01DX001 (ip), vehicle: saline
[3] = dose: 400.0 mg/kg/injection, schedule: Q01DX001 (ip), vehicle: saline
[4] = dose: 100.0 mg/kg/injection, schedule: Q01DX009 (ip), vehicle: Klucel (hydroxypropylcellulose) (HPC)
[5] = dose: 200.0 mg/kg/injection, schedule: Q01DX009 (ip), vehicle: Klucel (hydroxypropylcellulose) (HPC)
[6] = dose: 400.0 mg/kg/injection, schedule: Q01DX009 (ip), vehicle: Klucel (hydroxypropylcellulose) (HPC)
[7] = dose: 50.0 mg/kg/injection, schedule: Q01DX009 (ip), vehicle: Klucel (hydroxypropylcellulose) (HPC)
[8] = dose: 100.0 mg/kg/injection, schedule: Q04DX003 (ip), vehicle: Klucel (hydroxypropylcellulose) (HPC)
[9] = dose: 200.0 mg/kg/injection, schedule: Q04DX003 (ip), vehicle: Klucel (hydroxypropylcellulose) (HPC)
[10] = dose: 400.0 mg/kg/injection, schedule: Q04DX003 (ip), vehicle: Klucel (hydroxypropylcellulose) (HPC)
[11] = dose: 100.0 mg/kg/injection, schedule: Q01DX001 (ip), vehicle: Klucel (hydroxypropylcellulose) (HPC)
[12] = dose: 100.0 mg/kg/injection, schedule: Q04DX003 (ip), vehicle: saline
[13] = dose: 200.0 mg/kg/injection, schedule: Q01DX001 (ip), vehicle: Klucel (hydroxypropylcellulose) (HPC)
[14] = dose: 400.0 mg/kg/injection, schedule: Q01DX001 (ip), vehicle: Klucel (hydroxypropylcellulose) (HPC)
[15] = dose: 100.0 mg/kg/injection, schedule: Q01DX001 (ip), vehicle: carboxymethylcellulose (CMC)
[16] = dose: 100.0 mg/kg/injection, schedule: Q04DX002 (ip), vehicle: Klucel (hydroxypropylcellulose) (HPC)
[17] = dose: 200.0 mg/kg/injection, schedule: Q04DX002 (ip), vehicle: Klucel (hydroxypropylcellulose) (HPC)
[18] = dose: 400.0 mg/kg/injection, schedule: Q04DX002 (ip), vehicle: Klucel (hydroxypropylcellulose) (HPC)
[19] = dose: 25.0 mg/kg/injection, schedule: Q04DX003 (ip), vehicle: saline
[20] = dose: 50.0 mg/kg/injection, schedule: Q04DX003 (ip), vehicle: saline

Measured: T/C

CC1CC(C)/C(=N/N(C)C)C(C(O)CC2CC(=O)NC(=O)C2)C1 (stereo not drawn)
inactive: dose: 77.8 mg/kg/injection, schedule: Q01DX Z (ip), vehicle: carboxymethylcellulose (CMC) 106 % of control | dose: 116.7 mg/kg/injection, schedule: Q01DX Z (ip), vehicle: carboxymethylcellulose (CMC) 105 % of control | dose: 262.5 mg/kg/injection, schedule: Q01DX Z (ip), vehicle: carboxymethylcellulose (CMC) 119 % of control

CCC(CCNC(=O)c1ccccc1)(CCNC(=O)c1ccccc1)[N+](=O)[O-]
inactive: [1] 95 % of control | [2] 106 % of control | [3] 92 % of control

O=C(NNC(=O)OCCCl)OCCCl
inactive: dose: 111.0 mg/kg/injection, schedule: Q01DX Z (ip), vehicle: methylcellulose (MC) 107 % of control | dose: 166.0 mg/kg/injection, schedule: Q01DX Z (ip), vehicle: methylcellulose (MC) 92 % of control | dose: 250.0 mg/kg/injection, schedule: Q01DX Z (ip), vehicle: methylcellulose (MC) 107 % of control

CC(=O)Oc1cc2c(OC(C)=O)c(-c3c(C)cc4c(C(C)C)c(OC(C)=O)c(OC(C)=O)cc4c3OC(C)=O)c(C)cc2c(C(C)C)c1OC(C)=O
inactive: dose: 100.0 mg/kg/injection, schedule: Q04DX003 (ip), vehicle: saline with Tween-80 86 % of control

CC1(C)N=C(N)N=C(N)N1c1cccc(CCC(=O)Nc2ccc(S(=O)(=O)F)cc2)c1
inactive: dose: 0.8 mg/kg/injection, schedule: Q01DX009 (ip), vehicle: saline 103 % of control | dose: 4.0 mg/kg/injection, schedule: Q01DX009 (ip), vehicle: saline 101 % of control | dose: 20.0 mg/kg/injection, schedule: Q01DX009 (ip), vehicle: saline 103 % of control | dose: 100.0 mg/kg/injection, schedule: Q01DX009 (ip), vehicle: saline 112 % of control

O=C1c2cccc3cccc(c23)C(=O)N1Cc1ccco1
inactive: [4] 94 % of control | [5] 89 % of control | [6] 93 % of control

CN1CCCCC(c2ccccc2)(c2ccccc2)C1=N
inactive: dose: 37.5 mg/kg/injection, schedule: Q01DX001 (ip), vehicle: saline 100 % of control

CCN(CC)CCOc1ccc(C=Nc2ccc(I)cc2)cc1
inactive: dose: 100.0 mg/kg/injection, schedule: Q04DX003 (ip), vehicle: other 97 % of control | dose: 200.0 mg/kg/injection, schedule: Q04DX003 (ip), vehicle: other 98 % of control | dose: 400.0 mg/kg/injection, schedule: Q04DX003 (ip), vehicle: other 95 % of control

Cc1cccc(C)c1NC(=O)c1c(Cl)c(Cl)c(Cl)c(Cl)c1C(=O)O
inactive: dose: 25.0 mg/kg/injection, schedule: Q01DX009 (ip), vehicle: Klucel (hydroxypropylcellulose) (HPC) 95 % of control | [7] 87 % of control | [4] 94 % of control and 88 % of control | [8] 102 % of control | [9] 102 % of control | [10] 107 % of control

O=C(O)c1ccc(OCC(=O)c2ccccc2)cc1
inactive: dose: 100.0 mg/kg/injection, schedule: Q01DX009 (ip), vehicle: saline with Tween-80 98 % of control | dose: 200.0 mg/kg/injection, schedule: Q01DX009 (ip), vehicle: saline with Tween-80 89 % of control

CCN(CC)CCNC(=O)c1ccc(N=Cc2cc(Br)ccc2O)cc1
inactive: [4] 98 % of control | [5] 96 % of control

CC(C)Cc1c(N)nc(=S)[nH]c1C(=O)O
inactive: [11] 100 % of control | [12] 100 % of control | [13] 100 % of control | dose: 200.0 mg/kg/injection, schedule: Q04DX003 (ip), vehicle: saline 94 % of control | [14] 109 % of control | dose: 400.0 mg/kg/injection, schedule: Q04DX003 (ip), vehicle: saline 94 % of control

C/C(=N/O)c1ccc(C)s1
inactive: [15] 94 % of control | dose: 200.0 mg/kg/injection, schedule: Q01DX001 (ip), vehicle: carboxymethylcellulose (CMC) 100 % of control | dose: 400.0 mg/kg/injection, schedule: Q01DX001 (ip), vehicle: carboxymethylcellulose (CMC) 100 % of control

Nc1c(F)c(F)c(C(=O)O)c(F)c1F
inactive: dose: 100.0 mg/kg/injection, schedule: Q04DX002 (ip), vehicle: saline 94 % of control and 101 % of control | dose: 200.0 mg/kg/injection, schedule: Q04DX002 (ip), vehicle: saline 97 % of control and 107 % of control | dose: 800.0 mg/kg/injection, schedule: Q04DX002 (ip), vehicle: saline 100 % of control

O=C(O)CCCC(=O)NC1CC2c3ccccc3C1c1ccccc12 (stereo not drawn)
inactive: dose: 100.0 mg/kg/injection, schedule: Q01DX009 (ip), vehicle: saline sonified 101 % of control | [8] 94 % of control | dose: 200.0 mg/kg/injection, schedule: Q01DX009 (ip), vehicle: saline sonified 100 % of control | [9] 96 % of control | dose: 400.0 mg/kg/injection, schedule: Q01DX009 (ip), vehicle: saline sonified 100 % of control | [10] 91 % of control

COC(=O)c1c[nH]c2ccccc2c1=O
inactive: [4] 106 % of control | [8] 96 % of control | [5] 95 % of control | [9] 107 % of control | [6] 108 % of control | [10] 91 % of control

CCCCNC(=O)NS(=O)(=O)c1ccc(C)cc1
inactive: [11] 96 % of control | [13] 96 % of control | [14] 89 % of control

CN(CC(=O)O)Cc1oc(CO)cc(=O)c1O
inactive: [1] 110 % of control | [2] 95 % of control | [3] 95 % of control

c1ccc(N2N=NC3C4CC(C5COCC54)C32)cc1 (stereo not drawn)
inactive: [11] 97 % of control | [13] 104 % of control | [5] 121 % of control | [14] 109 % of control

COc1ccc(N=C(CCl)Nc2ccc(OC)cc2)cc1
inactive: [16] 94 % of control | [17] 88 % of control | [18] 109 % of control

C[P+]1(CCc2ccc(Cl)cc2)CC=CC1
inactive: [19] 93 % of control | [20] 103 % of control | [12] 96 % of control and 88 % of control

Cc1ccc(S(=O)(=O)Oc2ccccc2NS(=O)(=O)c2ccccc2)cc1
inactive: [1] 101 % of control | dose: 100.0 mg/kg/injection, schedule: Q04DX003 (ip), vehicle: acetone 96 % of control | [2] 95 % of control | dose: 200.0 mg/kg/injection, schedule: Q04DX003 (ip), vehicle: acetone 92 % of control | [3] 95 % of control | dose: 400.0 mg/kg/injection, schedule: Q04DX003 (ip), vehicle: acetone 87 % of control

NNS(=O)(=O)c1ccccc1
inactive: [19] 101 % of control | dose: 50.0 mg/kg/injection, schedule: Q01DX001 (ip), vehicle: carboxymethylcellulose (CMC) 101 % of control | [20] 101 % of control | [15] 92 % of control | [12] 103 % of control

CC(=O)c1cccc(NC(=O)c2ccco2)c1
inactive: [7] 96 % of control | [4] 93 % of control | [5] 93 % of control

Cc1ccc([N+](=O)[O-])cc1NC(=O)Cc1ccccc1
inactive: [16] 101 % of control | [17] 93 % of control | [18] 93 % of control
